In patent US20040248913A1, “(Pyridinyl and pyrimidyl) trienoic acid derivatives as retinoid x receptor modulators” (priority 2001, published 2004):

Legend:
RXRα homodimer = biological target: T1, RXRα homodimer (Homo sapiens, UniProt P19793); assay: RXR homodimer co-transfection assay in CV-1 cells (CRBPIITKLUC reporter); format: cell-based; conditions: for Agonist Efficacy (%): mean of n > 2; for Antagonist Efficacy (%) / IC50: RXRα homodimer; for Antagonist Efficacy (%): % of maximal inhibition in presence of fixed concentration (3.2×10^−8 M) of known RXR agonist; for IC50: in presence of known RXR agonist, read-out: Antagonist IC50; for Activity in the context of RXR homodimers (in words): summary of Table 1
T1 sequence (P19793 1-462): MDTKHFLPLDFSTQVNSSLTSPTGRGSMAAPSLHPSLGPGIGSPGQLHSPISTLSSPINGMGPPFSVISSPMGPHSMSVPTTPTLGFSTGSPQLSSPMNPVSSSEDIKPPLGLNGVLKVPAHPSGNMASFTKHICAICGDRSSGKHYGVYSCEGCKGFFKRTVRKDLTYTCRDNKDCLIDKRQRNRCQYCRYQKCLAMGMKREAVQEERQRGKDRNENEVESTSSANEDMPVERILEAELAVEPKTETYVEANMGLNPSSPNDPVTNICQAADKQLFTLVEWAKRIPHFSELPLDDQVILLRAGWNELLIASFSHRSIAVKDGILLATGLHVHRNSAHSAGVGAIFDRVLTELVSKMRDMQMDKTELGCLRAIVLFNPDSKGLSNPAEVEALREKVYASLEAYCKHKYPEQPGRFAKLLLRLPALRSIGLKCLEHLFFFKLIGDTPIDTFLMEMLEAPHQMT
Source text: This assay is described in further detail in U.S. Pat. Nos. 4,981,784 and 5,071,773, the disclosures of which are incorporated herein by reference.
The co-transfection assay provides a method for identifying functional agonists which mimic, or antagonists which inhibit, the effect of native hormones, and quantifying their activity for responsive IR proteins. In this regard, the co-transfection assay mimics an in vivo system in the laboratory. Importantly, activity in the co-transfection assay correlates very well with known in vivo activity, such that the co-transfection assay functions as a qualitative and quantitative predictor of a tested compounds in vivo pharmacology. See, e.g., T. Berger et al. 41 J. Steroid Biochem. Molec. Biol. 773 (1992), the disclosure of which is herein incorporated by reference.
(§1) In the co-transfection assay, cloned cDNA for one or more IRs (e.g., human RARα, RXRα, or PPARγ), alone or in combination (i.e. for heterodimer assays) under the control of a constitutive promoter (e.g., the SV 40, RSV or CMV promoter) is introduced by transfection (a procedure to introduce exogenous genes into cells) into a background cell substantially devoid of endogenous IRs. These introduced gene(s) direct the recipient cells to make the IR protein(s) of interest. A further gene is also introduced (co-transfected) into the same cells in conjunction with the IR gene(s). This further gene, comprising the cDNA for a reporter protein, such as firefly luciferase (LUC), controlled by an appropriate hormone responsive promoter containing a hormone response element (HRE). This reporter plasmid functions as a reporter for the transcriptional-modulating activity of the target IR(s). Thus, the reporter acts as a surrogate for the products (mRNA then protein) normally expressed by a gene under control of the target receptor(s) and their native hormone(s).
Exposing the transfected cells to an agonist ligand compound increases reporter activity in the transfected cells. This activity can be conveniently measured, e.g., by increasing luciferase production and enzymatic activity, which reflects compound-dependent, IR-mediated increases in reporter transcription. To detect antagonists, the co-transfection assay is carried out in the presence of a constant concentration of an known agonist to the target IR (e.g., 4-[(3,5,5,8,8-Pentamethyl-5,6,7,8-tetrahydro-2-naphthyl)ethenyl]benzoic acid (Ligand Pharmaceuticals, Inc.) for RXRα) known to induce a defined reporter signal. Increasing concentrations of an antagonist will decrease the reporter signal (e.g., luciferase production). The co-transfection assay is therefore useful to detect both agonists and antagonists of specific IRs. Furthermore, it determines not only whether a compound interacts with a particular IR, but whether this interaction mimics (agonizes) or blocks (antagonizes) the effects of native or synthetic regulatory molecules on target gene expression, as well as the specificity and strength of this interaction.
The receptor expression plsmid was cotransfected along with a reporter plasmid at 50 ng/well, the internal control plasmid pRS-β-Gal at 50 ng/well and filler DNA, pGEM, at 90 ng/well.

RXRα:RAR heterodimer [1] = biological target: T2, RXRα:RAR heterodimer (Homo sapiens, UniProt P19793); assay: RXR:RAR heterodimer cotransfection assay in CV-1 cells; format: cell-based; conditions: for RXR:RAR antagonist activity (in words): antagonist assay; for Antagonist Efficacy (%): relative to maximal repression (100%) in presence of 10 nM TTNPB
T2 construct: expressed in transfected cells; host or cells: CV-1 cells
T2 sequence (P19793 1-462): T1 sequence (P19793 1-462)
Source text: as §1
(§2) Compounds of the present invention were also tested for the ability to synergize with an RAR or PPARγ agonist in the context of an RXR heterodimer. […] Efficacy of the compounds of the present invention in the agonist and synergy assays was calculated as the maximum response obtained over the range of the dose response curve relative to the maximum response obtained by the reference agonist. Antagonist efficacy was determined as a function (%) of maximal inhibition.
(§3) RAR suppresses RXR ligand binding and transactivation of typical RXR agonists via allosteric interactions. […] However, when RAR is occupied, typical RXR agonists activate the heterodimer. […] To examine the effects of the compounds of the present invention on the transcriptional properties of the RXR:RAR heterodimer, a heterodimer cotransfection assay as described above was employed.

RXRα:RAR heterodimer [2] = assay: as above; format: cell-based, human; conditions: for Synergy Efficacy (%): maximal response in presence of 3 nM TTNPB relative to response to TTNPB alone; for Agonist Efficacy (%): maximal response relative to response of ATRA
Source text: as §1, §2, §3

[3] = RXRα homodimer cotransfection, CV-1 cells
[4] = not calculated if efficacy <10%

SMILES: CCCOc1c(\C(C)=C/C=C/C(C)=C/C(=O)O)cc(C(C)C)nc1C(C)C [Example 2, 7-(2,6-Diisopropyl-3-propoxy-pyridin-4-yl)-3-methyl-octa-2(E),4(E),6(Z)-trienoic Acid]
- Agonist Efficacy (%) (RXRα homodimer; [3]): 4%
- Antagonist Efficacy (%) (RXRα homodimer): 88%
- IC50 (RXRα homodimer; [4]): 4.1 nM
- Activity in the context of RXR homodimers (in words) (RXRα homodimer): highly efficacious and potent antagonist activity with little or no agonists activity
- RXR:RAR antagonist activity (in words) (RXRα:RAR heterodimer [1]): significant RXR:RAR antagonist activity
- Antagonist Efficacy (%) (RXRα:RAR heterodimer [1]): 88%
- RXR:RAR agonist activity / transactivation alone (in words) (RXRα:RAR heterodimer [2]): not active
- RXR:RAR agonist activity in combination with TTNPB (in words) (RXRα:RAR heterodimer [2]): not active
- Synergy Efficacy (%) (RXRα:RAR heterodimer [2]): 6%
- Agonist Efficacy (%) (RXRα:RAR heterodimer [2]): 2%

SMILES: CCOc1c(\C(C)=C/C=C/C(C)=C/C(=O)O)cc(C(C)C)nc1C(C)C [Example 3, 7-(2,6-Diisopropyl-3-ethoxy-pyridin-4-yl)-3-methyl-octa-2(E),4(E),6(Z)-trienoic acid]
- Agonist Efficacy (%) (RXRα homodimer; [3]): 51%
- EC50 (RXRα homodimer; RXRα homodimer cotransfection, CV-1 cells, not calculated if efficacy <10%, read-out: Agonist EC50): 2 nM
- Antagonist Efficacy (%) (RXRα homodimer): 3%
- Activity in the context of RXR homodimers (in words) (RXRα homodimer): agonist activity
- RXR:RAR agonist activity in combination with TTNPB (in words) (RXRα:RAR heterodimer [2]): strong agonist activity
- Synergy Efficacy (%) (RXRα:RAR heterodimer [2]): 73%
- Agonist Efficacy (%) (RXRα:RAR heterodimer [2]): 6%

SMILES: C/C(=C/C=C/C(C)=C/C(=O)O)c1cc(C(C)C)nc(C(C)C)c1OCC(F)(F)F [Example 5, 7-[2,6-Diisopropyl-3-(2,2,2-trifluoro-ethoxy)-pyridin-4-yl]-3-methyl-octa-2(E),4(E),6(Z)-trienoic acid]
- Agonist Efficacy (%) (RXRα homodimer; [3]): 3%
- Antagonist Efficacy (%) (RXRα homodimer): 85%
- IC50 (RXRα homodimer; [4]): 8 nM
- Activity in the context of RXR homodimers (in words) (RXRα homodimer): highly efficacious and potent antagonist activity with little or no agonists activity
- Antagonist Efficacy (%) (RXRα:RAR heterodimer [1]): 85%
- RXR:RAR agonist activity in combination with TTNPB (in words) (RXRα:RAR heterodimer [2]): weak to moderate agonist activity
- Synergy Efficacy (%) (RXRα:RAR heterodimer [2]): 18%
- Agonist Efficacy (%) (RXRα:RAR heterodimer [2]): 3%

SMILES: CCCCOc1c(\C(C)=C/C=C/C(C)=C/C(=O)O)cc(C(C)C)nc1C(C)C [Example 1, 7-(3-Butoxy-2,6-diisopropyl-pyridin-4-yl)-3-methyl-octa-2(E),4(E),6(Z)-trienoic Acid]
- Agonist Efficacy (%) (RXRα homodimer; [3]): 1%
- Antagonist Efficacy (%) (RXRα homodimer): 93%
- IC50 (RXRα homodimer; [4]): 3.5 nM
- Activity in the context of RXR homodimers (in words) (RXRα homodimer): highly efficacious and potent antagonist activity with little or no agonists activity
- RXR:RAR antagonist activity (in words) (RXRα:RAR heterodimer [1]): significant RXR:RAR antagonist activity
- Antagonist Efficacy (%) (RXRα:RAR heterodimer [1]): 93%
- RXR:RAR agonist activity / transactivation alone (in words) (RXRα:RAR heterodimer [2]): not active
- RXR:RAR agonist activity in combination with TTNPB (in words) (RXRα:RAR heterodimer [2]): not active
- Synergy Efficacy (%) (RXRα:RAR heterodimer [2]): 7%
- Agonist Efficacy (%) (RXRα:RAR heterodimer [2]): 1%

SMILES: C/C(=C/C=C/C(C)=C/C(=O)O)c1cc(C(C)C)nc(C(C)C)c1OCC(F)F [Example 4, 7-[3-(2,2-Difluoro-ethoxy)-2,6-diisopropyl-pyridin-4-yl]-3-methyl-octa-2(E),4(E),6(Z)-trienoic acid]
- Agonist Efficacy (%) (RXRα homodimer; [3]): 9%
- Antagonist Efficacy (%) (RXRα homodimer): 76%
- IC50 (RXRα homodimer; [4]): 8.7 nM
- Activity in the context of RXR homodimers (in words) (RXRα homodimer): highly efficacious and potent antagonist activity with little or no agonists activity
- Antagonist Efficacy (%) (RXRα:RAR heterodimer [1]): 76%
- RXR:RAR agonist activity in combination with TTNPB (in words) (RXRα:RAR heterodimer [2]): weak to moderate agonist activity
- Synergy Efficacy (%) (RXRα:RAR heterodimer [2]): 37%
- Agonist Efficacy (%) (RXRα:RAR heterodimer [2]): 9%
